Reference: patent US20060229233A1, “Compositions and methods for treating neurological disorders” (ID Biomedical Corporation, priority 2004, published 2006)
Marks after values point to notes of the source that are not given here.

Tests used:
[1] = tested on: Aβ fibrils; assay: Thioflavin-S quantification of Aβ fibrils in hippocampus, Tg2576 APP transgenic mice; assay type: in vivo
Source text: (§1) In order to determine whether the effect was unique to MOG-induced EAE, EAE was induced with proteolipid protein (PLP) peptide (amino acids 139-151) in CFA. A 76% reduction of staining for Aβ fibrils was found and a 70% reduction in Aβ levels in animals with PLP induced EAE (p<0.02) (See Table 2, FIG. 3A). In order to induce EAE with PLP, Tg2576 mice as described by Hsiao, K. et al., Science 274 (5284):99-102 (1996) were utilized, which are on a B6/SJL background. Similar results were found with Tg2576 mice and J20 immunized mice described by Mucke et al., Ann NY Acad Sci (777) 82-88 (1996), to induce MOG-EAE (See Table 1). […]
(§2) Amyloid quantification. To quantify amyloid burden, the right hemisphere was extracted in 5.0 M guanidinium-chloride (pH 8) for 3 hours at room temperature. […] Brains were frozen in the presence of OCT paraformaldehyde, cut to 14-μm longitudinal sections used for immunohistological staining and amyloid fibril quantification. Well-defined hippocampal regions (Bregma −1.34), were selected for quantification of the amount of amyloid fibril in plaques using thioflavin-S staining. Images (magnification ×20) from these sections were collected from a 3CCD color video camera and analyzed with appropriate software (NIH; Imaging Research). The amount of amyloid fibril was expressed as a percentage per mm^2 hippocampal region as measured by the software.

[2] = tested on: activated microglia; assay: Microglia activation (CD11b staining) in PLP-immunized animals; assay type: in vivo, mice; conditions: PLP immunization; p<0.001
[3] = tested on: Tg2576 APP transgenic mice; assay: EAE clinical score in PLP-immunized Tg2576 APP transgenic mice; assay type: in vivo; conditions: PLP immunization in CFA
Source text: In order to determine whether the effect was unique to MOG-induced EAE, EAE was induced with proteolipid protein (PLP) peptide (amino acids 139-151) in CFA. A 76% reduction of staining for Aβ fibrils was found and a 70% reduction in Aβ levels in animals with PLP induced EAE (p<0.02) (See Table 2, FIG. 3A). In order to induce EAE with PLP, Tg2576 mice as described by Hsiao, K. et al., Science 274 (5284):99-102 (1996) were utilized, which are on a B6/SJL background. Similar results were found with Tg2576 mice and J20 immunized mice described by Mucke et al., Ann NY Acad Sci (777) 82-88 (1996), to induce MOG-EAE (See Table 1). […] Of note, there was no difference in the total AS (amyloid) load in J20 mice greater than 13 months in age when compared to Tg2576 mice greater than 16 months of age.
Induction and clinical evaluation of EAE in APP+ mice. (B6D2)F1 or (B6XSJL)F1 APP+ (WT or B-cell deficient μMT) and non-tg littermates were immunized in the hind footpads with 100 μg MOG(35-55), PLP 139-151 or 100 μg β-amyloid peptide (1-40) in CFA. […] Animals were monitored for symptoms of EAE beginning 7 days after immunization and scored as follows: 0, no disease; 1, tail paralysis; 2, hind limb weakness; 3, hind limb paralysis; 4, hind limb plus forelimb paralysis; and 5, moribund.

[4] = tested on: Aβ40 and Aβ42; assay: Total brain Aβ by ELISA, Tg2576 APP transgenic mice; assay type: in vivo
Source text: as §1, §2

[5] = tested on: Aβ; assay: Anti-Aβ antibody level (IgG, OD 450) in Tg2576 APP transgenic mice; assay type: in vivo
Procedure: Antibody levels were measured against Aβ in animals immunized with MOG or PLP to determine if there was cross reactivity with Aβ and Aβ antibody titers as compared to those from animals immunized with Aβ. […] To definitively establish that antibodies were not playing a role, 16-month-old J20 mice bred to μMT B-cell deficient mice were immunized with MOG 35-55 in CFA followed by administration of Pertussis toxin.

[6] = PLP immunization in CFA, Tg2576 APP transgenic mice

Substance: proteolipid protein (PLP) peptide (amino acids 139-151) (CHCLGKWLGHPDK; UniProt P60202 139-151, looked up, fragment)
- % Area of thioflavin positive Aβ plaques (hippocampus) [1, 6]: 0.68 ± 0.2 ^b %
- reduction of staining for Aβ fibrils ([1]; PLP induced EAE, Tg2576 mice): 76%
- microglia activation [2]: increased levels of microglia activation
- EAE score [3]: 1.7 ± 0.7
- Total brain Aβ [4, 6]: 47.7 ± 18.4 ^a ng/ml
- reduction in Aβ levels ([4]; PLP induced EAE, Tg2576 mice): 70%
- anti-Aβ antibodies ([5]; PLP immunization): not detected
- Anti-Aβ Antibody ([5]; level of OD 450 at titer of 1:500 IgG, Tg2576 APP transgenic mice): 0 OD 450
